Data on two molecules can be found in US20240139185A1, “COMPOUNDS THAT PARTICIPATE IN COOPERATIVE BINDING AND USES THEREOF” (Revolution Medicines, Inc., priority 2018, published 2024).

The assay addresses cyclophilin A (CYPA) (Homo sapiens, UniProt P62937). Kind of assay: CYPA-compound binary complex formation by SPR. As to conditions: read-out: CYPA Binding Affinity. Put shortly: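 CypA-Avi captured on a Biotin CAPture chip (4 μg/ml), reference flow cell subtracted. Compounds injected as 10-point 2-fold dilutions from 50 μM in HBS-P+ pH7.4 with 2% DMSO; 60 s association and 60 s dissociation, solvent-corrected. Affinity obtained by steady-state fitting.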

Chain of cyclophilin A (CYPA) (P62937 whole entry): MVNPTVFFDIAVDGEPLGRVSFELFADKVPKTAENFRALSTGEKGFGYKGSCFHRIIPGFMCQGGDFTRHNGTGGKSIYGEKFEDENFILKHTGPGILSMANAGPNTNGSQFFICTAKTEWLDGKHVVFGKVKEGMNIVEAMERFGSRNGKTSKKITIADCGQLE

Take `CC1COC(=O)C2CCCN(N2)C(=O)C(NC(=O)C(C(C)C)N(C)C(=O)C2CN(C(=O)CCl)C2)Cc2cc(O)cc(c2)-c2ccc3c(c2)c(cn3CC2COC2)C1` (mixture of isomers) [Compound 226]: the Kd is at most 5 µM.
`CC1COC(=O)C2CCCN(N2)C(=O)C(NC(=O)C(C(C)C)N(C)C(=O)C2CN(C(=O)CCl)C2)Cc2cc(O)cc(c2)-c2ccc3c(S(C)(=O)=O)cn(c3c2)C1` (single isomer, unassigned) [Compound 110]: the Kd was at most 5 µM.
